# Test results from patent US20230398049A1, “TETRAPEPTIDES, COMPOSITIONS COMPRISING THEM, AND THEIR COSMETIC USE” (Sederma, priority 2020, published 2023).
# Peptide text beside a SMILES is read from it. * marks the point of attachment. Palmitoyl = CCCCCCCCCCCCCCCC(=O)*
# Key:
# Type in all cases: cell-based
# Collagen I (PIP) = assay: ELISA assay of collagen I synthesis (PIP) by normal human fibroblasts; conditions: NHF, 72 h contact, ELISA on supernatant
# Procedure: (§1) Normal human fibroblasts (NHF) in culture are brought into contact with the products to be tested or their excipient (negative control) for 72 h. At the end of the contact, the culture supernatants are removed, and the syntheses of the dermal macromolecules are estimated by ELISA assays. An estimate of cell viability is carried out by Hoechst assay to weight the obtained data. Collagen I is evaluated via the PIP assay (carboxy-terminal propeptide of procollagen type I) which is a peptide fragment resulting from the enzymatic degradation of procollagen when the latter is excreted outside the fibroblast (therefore in the culture medium where the assay is carried out).
# Fibronectine = assay: ELISA assay of fibronectin synthesis by normal human fibroblasts; conditions: NHF, 72 h contact, ELISA on supernatant
# Procedure: as §1
# Decorine [1] = assay: ELISA assay of decorin synthesis by normal human fibroblasts; conditions: NHF, 72 h contact, ELISA on supernatant
# Procedure: as §1
# Fibrillin 1 = assay: Immunofluorescence assay of Fibrillin 1 formation by normal human fibroblasts; conditions: NHF, five day incubation
# Procedure: Normal human fibroblasts (NHF) are cultured for at least 24 hours in fibroblast growth medium containing serum. Once confluence was reached, the cells are seeded and the actives and corresponding controls diluted in a culture medium are added. At the end of a five day incubation period, the supernatant is removed, the cells are washed with PBS and fixed. The cells are then incubated with the primary Fibrillin 1 monoclonal antibody (11C1.3) (Thermo Fisher) diluted in blocking buffer at a concentration of 1:200. The cells are incubated. The primary antibody is removed and the cells are washed with PBS. The secondary antibody was added at a dilution of 1:1000 in blocking buffer, then removed and the cells are washed with PBS. The formation of Fibrillin 1 by the cells is visualized using a fluorescence microscope. The obtained images are analyzed using an image processing software assigning a numerical value to the coverage density.
# Collagen IV = assay: ELISA assay of collagen IV synthesis by normal human fibroblasts; conditions: NHF, 72 h contact, concentrations of 2 to 3 ppm, ELISA on supernatant
# Procedure: as §1
# Hyaluronic acid = assay: ELISA assay of hyaluronic acid synthesis by normal human fibroblasts; conditions: NHF, 72 h contact, concentrations of 2 to 3 ppm, ELISA on supernatant
# Procedure: as §1
# Nidogen-1 = assay: LC-MS/MS analysis of secretome and matrisome of human dermal fibroblasts: Nidogen-1; conditions: HDF, seven days culture, pooled secretome and matrisome, n=3, p<0.05
# Procedure: (§2) Protocol Human dermal fibroblasts (HDF) are cultured with or without the peptide according to the invention (control) in n=3. The cells are cultured normally for five days in serum supplemented medium, then for two additional days in serum-free medium (culture of seven days in total). The cellular medium (secretome) is collected and the matrix separated from the cells with EDTA. The secretome and matrisome are kept for LC-MS/MS analysis. The cells are saved for future analysis. The secretome and matrisome compartments are pooled and processed as single samples.
# (§3) Mass spectrometry is used to determine the total amount of certain proteins identified in the secretome and matrisome in the presence of the peptide of the invention and which are absent from the control following the day 7 of incubation. The proteins are denatured (in urea), reduced (in dithiothreitol) and mechanically dissociated (using ultrasound) prior to overnight digestion with the SMART Digest™ Trypsin Kit (Thermo Fisher).
# (§4) The samples are analyzed on an UltiMate® 3000 rapid separation liquid chromatograph coupled to a Q Exactive™ Quadrupole-Orbitrap™ hybrid mass spectrometer: 200 ng injected at an analysis time of 90 minutes per sample.
# (§5) Protein quantification is performed using Progenesis QI and protein identification using Mascot v2.5.1. Normalized protein concentrations are compared between the peptide and the control. […]
# Decorine [2] = assay: LC-MS/MS analysis of secretome and matrisome of human dermal fibroblasts: Decorine; conditions: HDF, seven days culture, pooled secretome and matrisome, n=3, 0.05<p<0.1
# Procedure: as §2, §3, §4, §5
# SOD3 = assay: LC-MS/MS analysis of secretome and matrisome of human dermal fibroblasts: SOD3; conditions: HDF, seven days culture, pooled secretome and matrisome, n=3, 0.05<p<0.1
# Procedure: as §2, §3, §4, §5
# RAD23A = assay: LC-MS/MS analysis of secretome and matrisome of human dermal fibroblasts: RAD23A; conditions: HDF, seven days culture, pooled secretome and matrisome, n=3, 0.05<p<0.1
# Procedure: as §2, §3, §4, §5
Compound,"Collagen I (PIP) synthesis, change vs excipient control (Collagen I (PIP); concentrations of 5 to 15 ppm)","Fibronectine synthesis, change vs excipient control (Fibronectine; concentrations of 5 to 15 ppm)","Decorine synthesis, change vs excipient control (Decorine [1]; concentrations of 5 to 15 ppm)","Fibrillin 1 formation (coverage density), change vs control (Fibrillin 1; 10 ppm)","Collagen I (PIP) synthesis, change vs excipient control (Collagen I (PIP); concentrations of 2 to 3 ppm)","Fibronectine synthesis, change vs excipient control (Fibronectine; concentrations of 2 to 3 ppm)","Decorine synthesis, change vs excipient control (Decorine [1]; concentrations of 2 to 3 ppm)","Collagen IV synthesis, change vs excipient control (Collagen IV)","Hyaluronic acid synthesis, change vs excipient control (Hyaluronic acid)","Fibrillin 1 formation (coverage density), change vs control (Fibrillin 1; 4 ppm)",Nidogen-1 protein amount vs control (Nidogen-1),Decorine protein amount vs control (Decorine [2]),SOD3 protein amount vs control (SOD3),RAD23A protein amount vs control (RAD23A)
"CCCCCCCCCCCCCCCC(=O)N[C@@H](CC(C)C)C(=O)N[C@@H](CCCCN)C(=O)N[C@@H](CC(C)C)C(=O)N[C@@H](CCC(=O)O)C(=O)O [Pal-LKLE-OH, palmitoyl-leucyl-lysyl-leucyl-glutamic acid] (Palmitoyl-LKLE-OH)",+81%,+48%,+21%,+81% (p < 0.05),–,–,–,–,–,–,–,–,–,–
"Pal-ELED-OH: N-palmitoylated tetrapeptide Glu-Leu-Glu-Asp, free C-terminal acid; ELED is a fragment of Biglycan (Palmitoyl-ELED-OH; SMILES CCCCCCCCCCCCCCCC(=O)N[C@@H](CCC(=O)O)C(=O)N[C@@H](CC(C)C)C(=O)N[C@@H](CCC(=O)O)C(=O)N[C@@H](CC(=O)O)C(=O)O)",–,–,–,–,+42%,+70%,+69%,+42%,+28%,+97% (p < 0.05),stimulation,stimulation,stimulation,stimulation
